Results from ChEMBL document CHEMBL1201862, “PubChem BioAssay data set” (2004).
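96-well plates; 48 h exposure; 5 concentrations. Endpoints by linear interpolation between flanking doses. Not reached: highest tested concentration assigned. GI50 = concentration required for 50% inhibition of growth.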 Activity calls are given as the source filed them. Cut-off read from the data, not from the text of the source: active = GI50 up to about 1.1 µM and inactive = higher.

Columns and labels:
Experiment in all cases: growth of human tumour cells (NCI), 48 h
[1] = tested on: PC-3
[2] = tested on: SF-539
[3] = tested on: M14
[4] = tested on: SW-620
[5] = tested on: NCI-H23
[6] = tested on: UO-31
[7] = tested on: OVCAR-5
[8] = tested on: K562
[9] = tested on: SNB-19
[10] = tested on: MOLT-4
[11] = tested on: EKVX
[12] = tested on: NCI-H522
[13] = tested on: Malme-3M
[14] = tested on: U-251
[15] = tested on: HCT-116
[16] = tested on: SN12C
[17] = tested on: Hs-578T
[18] = tested on: CCRF-CEM
[19] = tested on: SF-295
[20] = tested on: UACC-257

Measured: GI50

COc1ccc(/C=C2\CN(C)C/C(=C\c3ccc(OC)cc3)C2=O)cc1
inactive: [1] > 100 µM | [2] > 100 µM | [3] > 100 µM | [4] > 100 µM | [5] > 100 µM | [6] > 100 µM | [7] > 100 µM | [8] > 100 µM | [9] > 100 µM | [10] > 100 µM | [11] > 100 µM | [12] > 100 µM | [13] > 100 µM | [14] > 100 µM | [15] > 100 µM | [16] > 100 µM | [17] > 100 µM | [18] > 100 µM | [19] > 100 µM

Cc1c(-c2ccccc2)oc(=O)c2ccccc12
inactive: [1] 24.4 µM | [2] 18.3 µM | [3] 22.5 µM | [20] 15.5 µM | [5] 24.8 µM | [6] 19 µM | [7] 30.8 µM | [8] 30.2 µM | [9] 30.7 µM | [10] 11 µM | [11] 18.5 µM | [12] 13.8 µM | [13] 21.7 µM | [14] 17.9 µM | [15] 24.6 µM | [16] 17.7 µM | [17] 17.1 µM | [18] 18.4 µM | [19] 18.3 µM

Cc1nnc2sc(-c3ccc(-c4ccccc4Cl)o3)nn12
inactive: [1] 37.2 µM | [2] 19.7 µM | [3] 32 µM | [20] 44.5 µM | [4] 20.9 µM | [5] 24.2 µM | [6] 33.7 µM | [7] > 100 µM | [8] 21.2 µM | [9] 40.5 µM | [10] 19 µM | [11] 33 µM | [12] 25.4 µM | [13] 47.3 µM | [14] 32.5 µM | [15] 19.8 µM | [16] 35.4 µM | [17] 55.7 µM | [18] 43.6 µM | [19] 32.1 µM

CC(C)C(=O)/C=C/c1ccc(Cl)cc1Cl
inactive: [1] 18.7 µM | [2] 18.4 µM | [3] 8.28 µM | [20] 13.3 µM | [4] 3.1 µM | [5] 13.7 µM | [6] 11.4 µM | [7] 16.9 µM | [8] 5.37 µM | [9] 15.8 µM | [10] 8.15 µM | [11] 16.8 µM | [12] 10.8 µM | [13] 14.8 µM | [14] 12.6 µM | [15] 2.65 µM | [16] 10.7 µM | [17] 3.51 µM | [18] 5.09 µM | [19] 16.9 µM

COC(=O)CCC(=O)NC1=C(Nc2ccc(OC)cc2)C(=O)c2ccccc2C1=O
inactive: [1] 9.66 µM | [2] 14.2 µM | [3] 7.26 µM | [20] 4.61 µM | [4] 15.3 µM | [5] 6.34 µM | [6] 15.4 µM | [7] 17.1 µM | [8] 23.9 µM | [9] 17.8 µM | [10] 15.7 µM | [11] 17.7 µM | [12] 10.8 µM | [13] 2.05 µM | [14] 16.5 µM | [15] 6.58 µM | [16] 13.1 µM | [17] 20.8 µM | [18] 26.1 µM | [19] 13 µM

O=C1CCSc2nc(-c3ccc4c(c3)OCO4)nn21
inactive: [1] > 10 µM | [2] > 10 µM | [3] > 10 µM | [20] > 10 µM | [4] > 10 µM | [5] > 10 µM | [7] > 10 µM | [8] > 10 µM | [9] > 10 µM | [10] > 10 µM | [11] > 10 µM | [12] > 10 µM | [13] > 10 µM | [14] > 10 µM | [15] > 10 µM | [16] > 10 µM | [17] > 10 µM | [18] > 10 µM | [19] > 10 µM

O=C1NC(N2CCOCC2)=N/C1=C\c1cccs1
inactive: [1] > 100 µM | [2] > 100 µM | [3] > 100 µM | [20] > 100 µM | [4] > 100 µM | [5] > 100 µM | [6] > 100 µM | [7] > 100 µM | [9] > 100 µM | [10] > 100 µM | [11] > 100 µM | [12] > 100 µM | [13] > 100 µM | [14] > 100 µM | [15] > 100 µM | [16] > 100 µM | [17] > 100 µM | [18] > 100 µM | [19] > 100 µM

CCOC(=O)C(=O)/C(=C/NC(=S)c1ccncc1)C(=O)OCC
inactive: [1] > 100 µM | [2] > 100 µM | [3] > 100 µM | [20] > 100 µM | [4] > 100 µM | [5] > 100 µM | [6] 5.71 µM | [7] > 100 µM | [8] > 100 µM | [9] 9.68 µM | [10] > 100 µM | [11] > 100 µM | [12] > 100 µM | [13] > 100 µM | [14] > 100 µM | [15] > 100 µM | [16] > 100 µM | [17] > 100 µM | [18] > 100 µM | [19] > 100 µM

CC(NC(=O)/C(=C/c1ccccc1)NC(=O)c1ccccc1)C(=O)O (stereo not drawn)
inactive: [1] > 100 µM | [2] 20.6 µM | [3] > 100 µM | [20] > 100 µM | [4] > 100 µM | [5] 47.4 µM | [6] 91.4 µM | [7] > 100 µM | [8] > 100 µM | [9] 77.1 µM | [10] > 100 µM | [11] 40.4 µM | [12] > 100 µM | [13] > 100 µM | [14] 34 µM | [15] 91.2 µM | [16] 92.3 µM | [17] 88.3 µM | [18] > 100 µM | [19] 96.4 µM

COc1cccc(-c2cc(O)c3cc(NC(C)=O)ccc3n2)c1
inactive: [1] 23.7 µM | [2] 14.2 µM | [3] 27.2 µM | [20] > 100 µM | [4] 47.8 µM | [5] 26.8 µM | [6] 71.6 µM | [7] 59.4 µM | [9] 8.41 µM | [10] 5.27 µM | [11] 53 µM | [12] 5.11 µM | [13] 5.05 µM | [14] 9.57 µM | [16] 78 µM | [17] 2.63 µM | [18] 5.6 µM
